In US12281118B2, “Nitrogen-containing fused heterocyclic SHP2 inhibitor compound, preparation method, and use” (SHANGHAI RINGENE BIOPHARMA CO., LTD., priority 2018, dated 2025):
Like-named read-outs stand apart in the source and are kept apart here.

Key:
MV4-11 leukemia cells = assay: Inhibition of proliferation of MV4-11 leukemia cells (CellTiter-Glo, 72 h); type: cell-based; conditions: Homo sapiens, MV4-11, 72 h, read-out: IC50 value, MV4-11 cell proliferation
Protocol: Specific experimental procedures: 1) At Day 0: Inoculating trypsin-digested cells in 96-well plate and suspending the plate in cell culture medium; measure cell density using an automatic cell counter, diluting the cells with the culture medium to appropriate density, adding 100 μl of cell suspension in the 96-well plate, and incubating a cell-free medium as a control well in a cell incubator with […] at 37° C. overnight; 2) Day 1: Treating test compounds of the cells using a drug for a total of 8 concentrations, and diluting at a 3× concentration, wherein 10 μM is a starting test concentration of the test compounds. […] IC50 values are obtained by a four-parameter regression using software attached to the plate reader (the specific results are shown in Table 2).

CYP1A2 = CYP1A2 (Homo sapiens (Human), UniProt P05177); assay: CYP direct inhibition test (DI test) in human liver microsomes; type: in vitro ADME
Sequence of CYP1A2 (P05177 whole entry): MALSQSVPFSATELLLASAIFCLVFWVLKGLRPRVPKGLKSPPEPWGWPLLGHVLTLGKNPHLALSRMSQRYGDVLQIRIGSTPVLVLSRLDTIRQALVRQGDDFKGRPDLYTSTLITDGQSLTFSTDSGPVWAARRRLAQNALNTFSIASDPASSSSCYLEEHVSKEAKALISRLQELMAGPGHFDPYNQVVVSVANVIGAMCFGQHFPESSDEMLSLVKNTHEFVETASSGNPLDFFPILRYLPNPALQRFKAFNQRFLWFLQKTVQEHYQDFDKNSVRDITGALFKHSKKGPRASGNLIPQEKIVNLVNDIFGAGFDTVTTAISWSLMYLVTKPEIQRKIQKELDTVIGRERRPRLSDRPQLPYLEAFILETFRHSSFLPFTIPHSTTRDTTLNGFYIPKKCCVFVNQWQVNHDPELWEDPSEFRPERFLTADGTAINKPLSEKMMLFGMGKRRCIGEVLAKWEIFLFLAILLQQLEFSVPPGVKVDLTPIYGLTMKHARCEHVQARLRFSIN
Protocol: Direct inhibition test (DI test): Incubating 100 μL of human liver microsomes (final concentration 0.2 mg/mL) containing NADPH (final concentration 1 mM), 10 μM of compound, a positive inhibitor cocktail (ketoconazole 10 μM, quinidine 10 μM, sulfaphenazole 100 μM, a-naphthoflavone 10 μM, and tranylcypromine 1,000 μM), a negative control (BPS containing 0.1% dimethyl sulfoxide) and a mixed probe substrate (midazolam 10 μM, testosterone 100 μM, dextromethorphan 10 μM, diclofenac 20 μM, phenacetin 100 μM, and mephenytoin 100 μM) for direct inhibition, and terminating the reaction after 20 min of the incubation. Calculating the relative enzyme activity by measuring the relative production of metabolites.

CYP2C8 = CYP2C8 (Homo sapiens (Human), UniProt P10632); assay: biochemical; type: in vitro ADME
Sequence of CYP2C8 (P10632 whole entry): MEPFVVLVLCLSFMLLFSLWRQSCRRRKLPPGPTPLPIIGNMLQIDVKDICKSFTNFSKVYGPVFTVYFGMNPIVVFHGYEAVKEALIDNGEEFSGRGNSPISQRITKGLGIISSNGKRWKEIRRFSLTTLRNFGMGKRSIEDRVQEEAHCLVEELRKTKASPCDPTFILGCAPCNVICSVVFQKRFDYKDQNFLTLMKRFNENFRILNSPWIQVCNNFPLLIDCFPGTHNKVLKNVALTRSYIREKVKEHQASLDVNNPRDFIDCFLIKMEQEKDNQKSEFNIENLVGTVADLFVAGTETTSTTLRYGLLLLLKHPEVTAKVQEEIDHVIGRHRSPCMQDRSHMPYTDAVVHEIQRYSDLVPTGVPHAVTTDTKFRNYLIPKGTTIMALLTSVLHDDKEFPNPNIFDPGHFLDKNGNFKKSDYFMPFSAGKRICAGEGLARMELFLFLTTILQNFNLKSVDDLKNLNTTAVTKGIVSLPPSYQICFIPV

[1] = In vivo pharmacokinetic parameters; parameters: AUC: unit not given here; conditions: plasma, po; for AUC: read-out: Area under the curve AUC; for bioavailability: read-out: Bioavailability F; for half-life: read-out: Half-life T1/2 (converted); for Cmax: read-out: Maximum plasma concentration Cmax
Protocol: Dividing 6 SPF-grade laboratory animals into two groups, and preparing the test compound to a suitable solution or suspension; intravenously administering animals in one group, and orally administering animals in the other group. Collecting blood via jugular vein puncture at approximately 0.2 mL/time point for each sample, anticoagulating with sodium heparin, wherein the time points for blood collection is as follows: pre-dose, and 5, 15 and 30 min, and 1, 2, 4, 6, 8, and 24 h post-dose; placing the collected blood samples on ice, separating plasma by centrifugation (centrifugation conditions: 8,000 rpm, 6 min, 2-8° C.), and storing the collected plasma at −80° C. before analysis. Analyzing plasma samples using LC-MS/MS.
Based on the plasma concentration data of the drug, pharmacokinetic parameters such as AUC0-t, AUC0-∞, MRT0-∞, Cmax, Tmax, T1/2 and Vd of a test sample, as well as mean and standard deviations thereof are calculated using a pharmacokinetic calculation software WinNonlin 5.2 noncompartmental model. In addition, the bioavailability (F) is calculated by the following formula.
For samples with concentrations below the lower limit of quantification, samples taken before reaching Cmax should be calculated as zero for calculations of the pharmacokinetic parameter, and samples taken at sampling points after reaching Cmax should be calculated as non-quantifiable (BLQ) (specific results are shown in Table 3).

[2] = test system: MV 4-11/KYSE520/NCI-H358 tumor cell xenografts; assay: Xenograft study in nude mice: tolerance and westernblot assay of tumor tissues; type: in vivo
Description: (§1) Experimental method: 1) Culturing MV 4-11/KYSE520/NCI-H358 cells in a culture medium containing 10% fetal bovine serum. Harvesting tumor cells at an exponential growth phase, and resuspending in PBS to suitable concentrations for subcutaneous tumor inoculation in nude mice. 2) Subcutaneously inoculating 2-8×10^7 tumor cells at the right back of a mouse, and resuspending the cells in PBS and matrigel (1:1); observing tumor growth regularly, and randomizing mice for administration based on tumor size and mouse body weight when tumors grow to a mean volume of ˜120 mm^3-1800 mm^3. 3) Defining the day of tumor cell inoculation as Day 0. Prior to the start of dosing, weighing all animals and measuring the tumor volume with a vernier caliper. 3) Administering orally compound of examples (prepared with water for injection containing 1% Tween80 to a desired concentration for use) at a given dose for three consecutive weeks, and giving an equal amount of solvent animals in a solvent control group. Measuring diameters of the xenograft twice a week throughout the experiment, and weighing the mice were at the same time.

[3] = test system: MC38 colorectal cancer xenografts; assay: Growth inhibition of MC38 colorectal cancer xenografts in C57BL-6 mice; type: in vivo; conditions: 1 mg/kg, orally, once daily
Description: as §1, with “MC38” for “MV 4-11/KYSE520/NCI-H358”, “Harvesting tumor cells at an exponential growth phase, and resuspending in PBS to suitable concentrations for subcutaneous tumor inoculation in nude mice.” left out, “[…]” for “2-8×10^7”, “˜50 mm^3-60” for “˜120 mm^3-1800”, “dose, intraperitoneally injecting an anti-PD-L1 antibody twice a week,” for “dose”, “two” for “three”
The calculation formula of tumor volume (TV) is: TV=½×a×b^2, wherein a and b represent length and width, respectively. The relative tumor volume (RTV) is calculated based on the measured results using the formula: RTV=Vt/V0, wherein V0 is the tumor volume measured at the time of dosing in separate cages (i.e., Day 0) and Vt is the tumor volume at each measurement. […]

Row | SMILES | IC50 (MV4-11 leukemia cells) [µM] | IC50 (CYP1A2) [µM] | IC50 (CYP2C8) [µM] | AUC ([1]; Mouse, 5 mg/kg) | bioavailability ([1]; Mouse, 5 mg/kg) [%] | half-life ([1]; Mouse, 5 mg/kg) [h] | Cmax ([1]; Mouse, 5 mg/kg) [nM] | AUC ([1]; Beagle Dog, 5 mg/kg) | bioavailability ([1]; Beagle Dog, 5 mg/kg) [%] | half-life ([1]; Beagle Dog, 5 mg/kg) [h] | Cmax ([1]; Beagle Dog, 5 mg/kg) [nM] | bioavailability ([1]; Rat, 5 g/kg (so in the source)) [%] | half-life ([1]; Rat, 5 g/kg (so in the source)) [h] | Cmax ([1]; Rat, 5 g/kg (so in the source)) [nM] | AUC ([1]; Rat, (so in the source)) | inhibition of the signaling pathway in tumor tissues (westernblot) ([2]; 24 hours after the last dosing) | tolerance of the experimental animals ([2]; nude mice with xenografts, oral dosing for three weeks) | T/C [3] [%]
1 | Nc1nccc(Sc2c(N)nc(N3CCC4(CC3)Cc3ccccc3[C@H]4N)n3ccnc23)c1Cl [Example 4, (S)-1′-(7-amino-8-((2-amino-3-chloropyridin-4-yl)thio)imidazo [1,2-c]pyrimidin-5-yl)-1,3-dihydrospiro [indene-2,4′-piperidine]-1-amine] | 0.0047 | > 25 | > 25 | 557 | 20 | 10.9 | 79 | – | – | – | – | – | – | – | – | – | – | –
2 | Cc1nc(N2CCC3(CC2)Cc2ccccc2[C@H]3N)n2ccnc2c1Sc1ccnc(N)c1Cl [Example 1, (S)-1′-(8-((2-amino-3-chloropyridin-4-yl)thio)-7-methylimidazo [1,2-c]pyrimidin-5-yl)-1,3-dihydrospiro [indene-2,4′-piperidine]-1-amine] | 0.011 | > 25 | > 25 | 5840 | 61 | 11.8 | 306 | 18200 | 162 | 10.9 | 907 | 64 | 22.3 | 211 | 3540 | can still inhibit the signaling pathway in tumor tissues continuously 24 hours after the last dosing | well tolerated | 60
